Source: ChEMBL document CHEMBL3885881, “DrugMatrix”

Organism: Rattus norvegicus
Assay: DrugMatrix - Regimen: Daily Repeat
Format: toxicity, organism-based, Sprague-Dawley
Parameters: regimen Daily Repeat, gender Male, age 6-8 weeks
Settings: in vivo, po, route oral GAVAGE, vehicle 100 % WATER; for ABSOLUTE BASOPHIL / ABSOLUTE EOSINOPHIL / ABSOLUTE LYMPHOCYTE / ABSOLUTE MONOCYTE / ABSOLUTE SEGMENTED NEUTROPHIL / BASOPHIL / EOSINOPHIL / ERYTHROCYTE COUNT / HEMATOCRIT / HEMOGLOBIN / LEUKOCYTE COUNT / LYMPHOCYTE / MEAN CORPUSCULAR HEMOGLOBIN / MEAN CORPUSCULAR HEMOGLOBIN CONCENTRATION / MEAN CORPUSCULAR VOLUME / MONOCYTE / NEUTROPHIL / NUCLEATED RED BLOOD CELLS / PLATELET COUNT: tissue Blood; for ALANINE AMINOTRANSFERASE / ALBUMIN / ALKALINE PHOSPHATASE / ASPARTATE AMINOTRANSFERASE / BLOOD UREA NITROGEN / CARBON DIOXIDE / CHLORIDE / CHOLESTEROL / CREATINE PHOSPHOKINASE / CREATININE / GLUCOSE / LACTATE DEHYDROGENASE / LIPASE / PHOSPHORUS / POTASSIUM / SODIUM / TOTAL BILIRUBIN / TOTAL PROTEIN / URIC ACID: tissue Plasma
[1] = 500 mg/kg, 120 h, dose level Low, time 5 day
[2] = 2000 mg/kg, 72 h, dose level High, time 3 day
[3] = 2000 mg/kg, 120 h, dose level High, time 5 day

SMILES: NCCCCCC(=O)O [AMINOCAPROIC ACID]
- ABSOLUTE BASOPHIL [1]: 0 CELLS/uL
- ABSOLUTE EOSINOPHIL [1]: 0 CELLS/uL
- ABSOLUTE LYMPHOCYTE [1]: 13712 CELLS/uL
- ABSOLUTE MONOCYTE [1]: 316 CELLS/uL
- ABSOLUTE SEGMENTED NEUTROPHIL [1]: 872 CELLS/uL
- BASOPHIL [1]: 0%
- EOSINOPHIL [1]: 0%
- ERYTHROCYTE COUNT [1]: 5.42 x10E6/uL
- HEMATOCRIT [1]: 34.37%
- HEMOGLOBIN [1]: 13.87 G/DL
- LEUKOCYTE COUNT [1]: 14.9 x10E3/uL
- LYMPHOCYTE [1]: 92.33%
- MEAN CORPUSCULAR HEMOGLOBIN [1]: 25.67 pg
- MEAN CORPUSCULAR HEMOGLOBIN CONCENTRATION [1]: 40.37 G/DL
- MEAN CORPUSCULAR VOLUME [1]: 63.53 fL
- MONOCYTE [1]: 2%
- NEUTROPHIL [1]: 5.67%
- NUCLEATED RED BLOOD CELLS [1]: 0 /100WBC
- PLATELET COUNT [1]: 1257.67 x10E3/uL
- ALANINE AMINOTRANSFERASE [1]: 51.33 u/L
- ALBUMIN [1]: 4.4 G/DL
- ALKALINE PHOSPHATASE [1]: 417.33 u/L
- ASPARTATE AMINOTRANSFERASE [1]: 75.67 u/L
- BLOOD UREA NITROGEN [1]: 15.33 mg/dL
- CARBON DIOXIDE [1]: 26.67 mmol/L
- CHLORIDE [1]: 101.67 MEQ/L
- CHOLESTEROL [1]: 72.67 mg/dL
- CREATINE PHOSPHOKINASE [1]: 253.67 u/L
- CREATININE [1]: 0.15 mg/dL
- GLUCOSE [1]: 153.33 mg/dL
- LACTATE DEHYDROGENASE [1]: 102.33 u/L
- LIPASE [1]: 9 u/L
- PHOSPHORUS [1]: 11.07 mg/dL
- POTASSIUM [1]: 6.75 MEQ/L
- SODIUM [1]: 143.73 MEQ/L
- TOTAL BILIRUBIN [1]: 0.2 mg/dL
- TOTAL PROTEIN [1]: 6.1 G/DL
- URIC ACID [1]: 1.57 mg/dL
- ABSOLUTE BASOPHIL [2]: 0 CELLS/uL
- ABSOLUTE EOSINOPHIL [2]: 99.33 CELLS/uL
- ABSOLUTE LYMPHOCYTE [2]: 12832.33 CELLS/uL
- ABSOLUTE MONOCYTE [2]: 0 CELLS/uL
- ABSOLUTE SEGMENTED NEUTROPHIL [2]: 1535 CELLS/uL
- BASOPHIL [2]: 0%
- EOSINOPHIL [2]: 0.67%
- ERYTHROCYTE COUNT [2]: 5.61 x10E6/uL
- HEMATOCRIT [2]: 36.13%
- HEMOGLOBIN [2]: 14.13 G/DL
- LEUKOCYTE COUNT [2]: 14.47 x10E3/uL
- LYMPHOCYTE [2]: 88.67%
- MEAN CORPUSCULAR HEMOGLOBIN [2]: 25.17 pg
- MEAN CORPUSCULAR HEMOGLOBIN CONCENTRATION [2]: 39.1 G/DL
- MEAN CORPUSCULAR VOLUME [2]: 64.4 fL
- MONOCYTE [2]: 0%
- NEUTROPHIL [2]: 10.67%
- NUCLEATED RED BLOOD CELLS [2]: 0.33 /100WBC
- PLATELET COUNT [2]: 1333.33 x10E3/uL
- ALANINE AMINOTRANSFERASE [2]: 41.67 u/L
- ALBUMIN [2]: 4.27 G/DL
- ALKALINE PHOSPHATASE [2]: 386.67 u/L
- ASPARTATE AMINOTRANSFERASE [2]: 89 u/L
- BLOOD UREA NITROGEN [2]: 18 mg/dL
- CARBON DIOXIDE [2]: 22.67 mmol/L
- CHLORIDE [2]: 103 MEQ/L
- CHOLESTEROL [2]: 61.33 mg/dL
- CREATINE PHOSPHOKINASE [2]: 502 u/L
- CREATININE [2]: 0.2 mg/dL
- GLUCOSE [2]: 180 mg/dL
- LACTATE DEHYDROGENASE [2]: 295 u/L
- LIPASE [2]: 11 u/L
- PHOSPHORUS [2]: 11.37 mg/dL
- POTASSIUM [2]: 5.97 MEQ/L
- SODIUM [2]: 144.2 MEQ/L
- TOTAL BILIRUBIN [2]: 0.27 mg/dL
- TOTAL PROTEIN [2]: 5.77 G/DL
- URIC ACID [2]: 1.03 mg/dL
- ABSOLUTE BASOPHIL [3]: 0 CELLS/uL
- ABSOLUTE EOSINOPHIL [3]: 109 CELLS/uL
- ABSOLUTE LYMPHOCYTE [3]: 13720 CELLS/uL
- ABSOLUTE MONOCYTE [3]: 222 CELLS/uL
- ABSOLUTE SEGMENTED NEUTROPHIL [3]: 1882.33 CELLS/uL
- BASOPHIL [3]: 0%
- EOSINOPHIL [3]: 0.67%
- ERYTHROCYTE COUNT [3]: 5.57 x10E6/uL
- HEMATOCRIT [3]: 34.6%
- HEMOGLOBIN [3]: 13.8 G/DL
- LEUKOCYTE COUNT [3]: 15.93 x10E3/uL
- LYMPHOCYTE [3]: 86.33%
- MEAN CORPUSCULAR HEMOGLOBIN [3]: 24.83 pg
- MEAN CORPUSCULAR HEMOGLOBIN CONCENTRATION [3]: 39.87 G/DL
- MEAN CORPUSCULAR VOLUME [3]: 62.2 fL
- MONOCYTE [3]: 1.33%
- NEUTROPHIL [3]: 11.67%
- NUCLEATED RED BLOOD CELLS [3]: 0 /100WBC
- PLATELET COUNT [3]: 1463.33 x10E3/uL
- ALANINE AMINOTRANSFERASE [3]: 41.67 u/L
- ALBUMIN [3]: 4.27 G/DL
- ALKALINE PHOSPHATASE [3]: 291 u/L
- ASPARTATE AMINOTRANSFERASE [3]: 77 u/L
- BLOOD UREA NITROGEN [3]: 17.67 mg/dL
- CARBON DIOXIDE [3]: 25.33 mmol/L
- CHLORIDE [3]: 101 MEQ/L
- CHOLESTEROL [3]: 60.67 mg/dL
- CREATINE PHOSPHOKINASE [3]: 281 u/L
- CREATININE [3]: 0.15 mg/dL
- GLUCOSE [3]: 157.33 mg/dL
- LACTATE DEHYDROGENASE [3]: 298.67 u/L
- LIPASE [3]: 9.33 u/L
- PHOSPHORUS [3]: 10.73 mg/dL
- POTASSIUM [3]: 6.02 MEQ/L
- SODIUM [3]: 141.63 MEQ/L
- TOTAL BILIRUBIN [3]: 0.17 mg/dL
- TOTAL PROTEIN [3]: 6.07 G/DL
- URIC ACID [3]: 0.8 mg/dL
